Among the test systems are BT-549 breast; HS 578T breast; T-47D breast; MCF7 breast; DU-145 prostate; MDA-MB-231 breast.
What all share (assay): NCI-60 cell line screen, 48 h

Molecules are shown by their SMILES.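 Step 1: Grow cells in 96-well plates. Step 2: Expose to compound for 48 hours at 5 concentrations. Step 3: Interpolate endpoints linearly; if unreached, use highest concentration. GI50 = concentration required for 50% inhibition of growth. TGI: total growth inhibition.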

`CN1CCN(Cc2ccc(NC(=O)c3cncc(C#Cc4cnc(N)c5ccc(F)cc45)c3)cc2C(F)(F)F)CC1`: the GI50 in the experiment with BT-549 breast was 4.38 µM; with HS 578T breast it was 1.17 µM; in the experiment on T-47D breast, 4.53 µM; in the experiment with MCF7 breast, 1.27 µM; with DU-145 prostate, 1.25 µM; in the experiment on MDA-MB-231 breast it was 0.936 µM. Also, the TGI was determined as 8.86 µM in the experiment on BT-549 breast; 12.2 µM in the experiment with HS 578T breast; 11.4 µM in the experiment on T-47D breast; 5.43 µM in the experiment on MCF7 breast; 5.01 µM in the experiment with DU-145 prostate; 3.66 µM in the experiment on MDA-MB-231 breast.
With `O=C(Oc1ccc(O)c2c(=O)n3c(cc12)[nH]c1ccccc13)c1ccccc1`, the GI50 in the experiment with BT-549 breast was 6.35 µM; in the experiment with HS 578T breast it was 41.1 µM; in the experiment with T-47D breast, 9.32 µM; in the experiment with MCF7 breast, 74.1 µM; with DU-145 prostate it was 30.5 µM; in the experiment on MDA-MB-231 breast, 6.22 µM. For the same compound, the TGI is 32.2 µM in the experiment on BT-549 breast; above 100 µM in the experiment with HS 578T breast; 47.2 µM in the experiment with T-47D breast; above 100 µM in the experiment on MCF7 breast; above 100 µM with DU-145 prostate; 42.1 µM in the experiment with MDA-MB-231 breast.
As to `COc1cc2nc(-c3ccc(C(F)(F)F)cc3)cc(OCCCN3CCOCC3)c2cc1OC`, the GI50 was 5 µM in the experiment on BT-549 breast; 2.25 µM in the experiment on HS 578T breast; 0.654 µM in the experiment with T-47D breast; 1.55 µM in the experiment on MCF7 breast; 10.1 µM in the experiment with DU-145 prostate; 0.498 µM with MDA-MB-231 breast. Moreover, the TGI is 20.9 µM in the experiment with BT-549 breast; 9.24 µM with HS 578T breast; 23.8 µM in the experiment on T-47D breast; 11.7 µM in the experiment on MCF7 breast; 24 µM with DU-145 prostate; 4.51 µM in the experiment on MDA-MB-231 breast.
Take `COC(=O)CCC/C=C\C[C@H]1C=CC(=O)/C1=C/C[C@@H](O)CCc1cccc(C(F)(F)F)c1`: the GI50 in the experiment on BT-549 breast was 2.68 µM; in the experiment with HS 578T breast, 12.2 µM; in the experiment with T-47D breast, 3.45 µM; with MCF7 breast it was 0.775 µM; in the experiment with DU-145 prostate, 2.59 µM; with MDA-MB-231 breast, 4.65 µM. Besides, the TGI in the experiment with BT-549 breast was determined as 9.25 µM; in the experiment with HS 578T breast, 50 µM; in the experiment on T-47D breast it was 17 µM; in the experiment on MCF7 breast, 12.9 µM; with DU-145 prostate, 10 µM; in the experiment with MDA-MB-231 breast, 17.1 µM.
`CCCCNc1nc(NC(C)(C)C)nc(NC(C)(C)C)n1`: the GI50 with BT-549 breast was 19.1 µM; with HS 578T breast, 21.1 µM; in the experiment on T-47D breast it was 15.2 µM; with MCF7 breast, 9.94 µM; in the experiment on DU-145 prostate it was 8.82 µM; in the experiment with MDA-MB-231 breast, 2.27 µM. Moreover, the TGI was above 100 µM in the experiment with BT-549 breast; above 100 µM in the experiment on HS 578T breast; above 100 µM in the experiment on T-47D breast; above 100 µM in the experiment with MCF7 breast; above 100 µM in the experiment on DU-145 prostate; 34.8 µM with MDA-MB-231 breast.
Regarding `Clc1nc(Oc2ccccc2)nc(-c2cn(-c3ccccc3)c3ccccc23)n1`, the GI50 is 17 µM in the experiment on BT-549 breast; 4.66 µM in the experiment on HS 578T breast; 8.58 µM with T-47D breast; 11.6 µM in the experiment on MCF7 breast; 8.6 µM with DU-145 prostate; 5.33 µM in the experiment on MDA-MB-231 breast. Also, the TGI in the experiment with BT-549 breast is 35.6 µM; in the experiment on HS 578T breast, 18.7 µM; in the experiment on T-47D breast it was 29.5 µM; in the experiment with MCF7 breast, 32.5 µM; with DU-145 prostate, 21.8 µM; in the experiment on MDA-MB-231 breast it was 15.7 µM.
For the compound `CCOC(=O)[C@@H](C)C[C@H](Cc1ccccc1)NC(=O)c1csc([C@@H](C[C@H](C(C)C)N(C)C(=O)[C@@H](NC(=O)[C@H]2C[C@H](O[Si](C)(C)C(C)(C)C)CCN2C)C(C)C)OC(C)=O)n1`, the GI50 in the experiment with BT-549 breast is 0.285 µM; in the experiment on HS 578T breast, 0.217 µM; in the experiment with T-47D breast, 0.297 µM; in the experiment with MCF7 breast it was 0.132 µM; in the experiment with DU-145 prostate it was 0.287 µM; in the experiment with MDA-MB-231 breast, 0.329 µM. The TGI is 2.53 µM with BT-549 breast; 1.35 µM in the experiment with HS 578T breast; above 8.33 µM in the experiment on T-47D breast; above 8.33 µM in the experiment with MCF7 breast; above 3.91 µM in the experiment on DU-145 prostate; 1.89 µM in the experiment with MDA-MB-231 breast.
For the compound `CCN(CC)CCNc1c(OC)cc(C)c2sc3ccccc3c(=O)c12`, the TGI in the experiment with BT-549 breast amounted to 24.2 µM; in the experiment on HS 578T breast it was 24.8 µM; with T-47D breast it was 39.9 µM; in the experiment with MCF7 breast, 18.7 µM; in the experiment with DU-145 prostate it was 24.2 µM; with MDA-MB-231 breast, 10.1 µM.
On to `S=C(Nc1ccc(-c2nc3ccccc3[nH]2)cc1)NC1CCCCC1`, for which the GI50 was 21.7 µM in the experiment on BT-549 breast; 26.1 µM in the experiment with HS 578T breast; 27 µM with T-47D breast; 19.7 µM in the experiment with MCF7 breast; 37.9 µM in the experiment with DU-145 prostate; 18.1 µM in the experiment with MDA-MB-231 breast. For the same compound, the TGI was 60.3 µM with BT-549 breast, above 100 µM in the experiment with MCF7 breast and 43.1 µM with MDA-MB-231 breast.
As for `CN(C)c1ccc(/C=C2\Oc3cc(O)ccc3C2=O)cc1`, the TGI in the experiment with BT-549 breast, with HS 578T breast, in the experiment on T-47D breast, in the experiment on MCF7 breast, with DU-145 prostate and with MDA-MB-231 breast was above 100 µM each time.
Take `CCCCCCC/C=C/[C@H]1O[C@]23C(=O)C[C@@]4(C[C@@H](OC5OC(CO)C(O)C(O)C5O)C[C@@H]4[C@H]2C=C1C)OC3=O` (some centres undefined): the GI50 in the experiment with BT-549 breast is 2.06 µM; in the experiment with HS 578T breast it was 9.04 µM; in the experiment with T-47D breast, 0.911 µM; in the experiment with MCF7 breast it was 1.36 µM; in the experiment with DU-145 prostate, 4.59 µM; in the experiment on MDA-MB-231 breast, 6.47 µM. Further, the TGI with BT-549 breast was 12.9 µM; in the experiment on HS 578T breast it was above 33.3 µM; in the experiment on T-47D breast, 9.69 µM; in the experiment with MCF7 breast, 26.9 µM; with DU-145 prostate it was 9.87 µM; with MDA-MB-231 breast, 16.5 µM.
Take `COc1cc(-c2cnn(C)c2)ccc1Nc1ncc2ccnc(N[C@@H](C)C(C)(C)C)c2n1`: the GI50 was above 68.5 µM with BT-549 breast; above 79 µM in the experiment on HS 578T breast; above 100 µM in the experiment with T-47D breast; above 63.1 µM in the experiment on MCF7 breast; above 100 µM in the experiment on DU-145 prostate; 13.4 µM with MDA-MB-231 breast. The TGI with BT-549 breast, in the experiment with HS 578T breast, with T-47D breast, with MCF7 breast, with DU-145 prostate and in the experiment with MDA-MB-231 breast was above 100 µM each time.
